Reference: patent US20240398812A1 (Caraway Therapeutics, Inc., priority 2021, published 2024)

Columns and labels:
Type in all cases: cell-based
[1] = biological target: human TRPML1 (Homo sapiens, UniProt Q9GZU1); assay: Fluorescent TRPML1 assay (Fluo4-AM calcium fluorescence, HEK-293 Trex cells)
Summary of the method: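 Agonist EC50 from non-linear regression of percent activity versus on-plate controls, calcium signal read at 480/540 nm. Compounds spanned 6 nM–20 μM final in triplicate. Cells: doxycycline-induced HEK-293 Trex with cell-surface human TRPML1 mutant, Fluo4-AM loaded, in Ringer's containing 10 mM calcium.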

[2] = biological target: T1, TRPML2 (Homo sapiens, UniProt Q8IZK6); assay: Fluorescent TRPML2 assay (as for TRPML1)
T1 construct: expressed in transfected cells
T1 sequence (Q8IZK6 1-566): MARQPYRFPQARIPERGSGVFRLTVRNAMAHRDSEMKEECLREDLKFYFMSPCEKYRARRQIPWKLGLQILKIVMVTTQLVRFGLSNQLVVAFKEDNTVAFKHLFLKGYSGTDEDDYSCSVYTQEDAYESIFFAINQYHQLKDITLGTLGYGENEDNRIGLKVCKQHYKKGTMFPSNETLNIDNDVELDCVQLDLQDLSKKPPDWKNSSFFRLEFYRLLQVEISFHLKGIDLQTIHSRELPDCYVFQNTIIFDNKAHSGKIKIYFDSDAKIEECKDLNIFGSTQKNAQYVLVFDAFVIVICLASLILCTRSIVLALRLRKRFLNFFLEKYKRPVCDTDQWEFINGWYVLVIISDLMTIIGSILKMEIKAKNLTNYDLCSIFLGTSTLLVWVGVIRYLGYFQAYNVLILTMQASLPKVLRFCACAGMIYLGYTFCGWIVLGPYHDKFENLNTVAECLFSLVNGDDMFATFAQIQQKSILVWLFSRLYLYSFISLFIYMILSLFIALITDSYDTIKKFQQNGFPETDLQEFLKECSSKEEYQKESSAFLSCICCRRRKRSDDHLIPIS
Summary of the method: (§1)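 EC50 came from non-linear regression of percent activity, set against on-plate positive and negative controls, using Fluo4 fluorescence (ex 480, em 540 nm). Compounds ran in triplicate from 6 nM to 20 µM final in half-log steps. Doxycycline-induced (0.5 ug/mL) HEK-293 Trex cells expressing surface-directed mutant channel were in 10 mM calcium Ringer's.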

[3] = biological target: T2, TRPML3 (Homo sapiens, UniProt Q8TDD5); assay: Fluorescent TRPML3 assay (as for TRPML1)
T2 construct: expressed in transfected cells
T2 sequence (Q8TDD5 1-553): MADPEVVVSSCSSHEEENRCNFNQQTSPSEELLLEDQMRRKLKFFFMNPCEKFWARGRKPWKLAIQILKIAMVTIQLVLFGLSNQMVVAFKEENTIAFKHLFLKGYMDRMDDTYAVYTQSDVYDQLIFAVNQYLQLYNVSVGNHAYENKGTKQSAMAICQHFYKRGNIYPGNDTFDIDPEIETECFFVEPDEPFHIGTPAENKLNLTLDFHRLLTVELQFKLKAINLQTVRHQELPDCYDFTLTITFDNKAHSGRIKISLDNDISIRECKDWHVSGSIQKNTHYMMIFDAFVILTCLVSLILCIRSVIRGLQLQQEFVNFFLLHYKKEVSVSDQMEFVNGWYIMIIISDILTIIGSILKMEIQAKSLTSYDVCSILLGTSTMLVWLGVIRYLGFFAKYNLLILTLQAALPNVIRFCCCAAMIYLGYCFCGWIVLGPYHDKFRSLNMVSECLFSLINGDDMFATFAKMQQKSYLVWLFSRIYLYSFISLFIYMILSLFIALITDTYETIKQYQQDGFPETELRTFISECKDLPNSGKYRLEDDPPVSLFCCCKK
Summary of the method: as §1

Sequence of human TRPML1 (Q9GZU1 whole entry L15A/L16A/L577A/L578A, form open): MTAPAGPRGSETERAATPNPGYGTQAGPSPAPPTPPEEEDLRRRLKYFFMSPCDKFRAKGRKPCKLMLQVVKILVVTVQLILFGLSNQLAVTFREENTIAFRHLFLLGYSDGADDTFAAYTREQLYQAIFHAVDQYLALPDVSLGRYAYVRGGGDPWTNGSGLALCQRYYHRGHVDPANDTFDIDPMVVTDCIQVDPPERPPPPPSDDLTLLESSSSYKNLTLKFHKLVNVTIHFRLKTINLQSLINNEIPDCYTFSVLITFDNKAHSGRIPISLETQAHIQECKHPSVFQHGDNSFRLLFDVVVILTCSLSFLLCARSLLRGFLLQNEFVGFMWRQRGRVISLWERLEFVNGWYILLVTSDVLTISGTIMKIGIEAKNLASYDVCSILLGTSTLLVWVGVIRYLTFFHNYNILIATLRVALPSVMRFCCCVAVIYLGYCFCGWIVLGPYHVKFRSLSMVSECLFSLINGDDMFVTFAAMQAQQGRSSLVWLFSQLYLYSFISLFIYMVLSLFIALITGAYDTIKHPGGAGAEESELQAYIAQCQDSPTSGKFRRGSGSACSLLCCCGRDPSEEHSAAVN

In the case of `COC(C)(C)C(=O)N1C[C@H](C)N(c2ncnc3c2c(-c2ccccc2F)cn3-c2cc(C#N)ccn2)C[C@H]1C` [Compound 232, 2-(5-(2-fluorophenyl)-4-((2S,5R)-4-(2-methoxy-2-methylpropanoyl)-2,5-dimethylpiperazin-1-yl)-7H-pyrrolo[2,3-d]pyrimidin-7-yl)isonicotinonitrile], the EC50 ([1]; Table 3, compounds 201-283) is reported as less than 100 nM, the EC50 ([2]; Table 3, compounds 201-283) is reported as less than 100 nM and the EC50 ([3]; Table 3, compounds 201-283) is reported as less than 100 nM.
Work on `C[C@@H]1CN(c2ncnc3c2c(C2CCC2)cn3-c2cccc(F)c2)[C@@H](C)CN1C(=O)C(C)(C)C(F)(F)F` [Compound 252, 1-((2R,5S)-4-(5-cyclobutyl-7-(3-fluorophenyl)-7H-pyrrolo[2,3-d]pyrimidin-4-yl)-2,5-dimethylpiperazin-1-yl)-3,3,3-trifluoro-2,2-dimethylpropan-1-one] yielded an EC50 ([1]; Table 3, compounds 201-283) of 100 to 500 nM, an EC50 ([2]; Table 3, compounds 201-283) of 500 to 2000 nM and an EC50 ([3]; Table 3, compounds 201-283) of 100 to 500 nM.
Compound `CC(C)CC(=O)N1C[C@H](C)N(c2ncnc3c2c(C2CC2)cn3-c2cc(C#N)ccn2)C[C@H]1C` [Compound 154] has an EC50 ([1]; Table 3, compounds 101-177) of 100 to 500 nM, an EC50 ([2]; Table 3, compounds 101-177) greater than 2000 nM and an EC50 ([3]; Table 3, compounds 101-177) of less than 100 nM.
For `C[C@@H]1CN(c2ncnc3c2c(C(F)(F)F)cn3-c2cc(C#N)ccn2)[C@@H](C)CN1C(=O)C(C)(C)C` [Compound 207, 2-(4-((2S,5R)-2,5-dimethyl-4-pivaloylpiperazin-1-yl)-5-(trifluoromethyl)-7H-pyrrolo[2,3-d]pyrimidin-7-yl)isonicotinonitrile], the EC50 ([1]; Table 3, compounds 201-283) was less than 100 nM, the EC50 ([2]; Table 3, compounds 201-283) was 100 to 500 nM and the EC50 ([3]; Table 3, compounds 201-283) was less than 100 nM.
Compound `CC(C)C(=O)N1CCN(c2ncnc3c2c(-c2ccccc2)cn3-c2cc(C#N)ccn2)[C@@H](C)C1` [Compound 118, (S)-2-(4-(4-isobutyryl-2-methylpiperazin-1-yl)-5-phenyl-7H-pyrrolo[2,3-d]pyrimidin-7-yl)isonicotinonitrile] has an EC50 ([1]; Table 3, compounds 101-177) of less than 100 nM, an EC50 ([2]; Table 3, compounds 101-177) of 500 to 2000 nM and an EC50 ([3]; Table 3, compounds 101-177) of less than 100 nM.
`C[C@H]1CN(C(=O)[C@@H](F)C(C)(C)C)CCN1c1ncnc2c1c(C1CC1)cn2-c1cc(C#N)ccn1` (single isomer, unassigned) [Compound 203] showed an EC50 ([1]; Table 3, compounds 201-283) of less than 100 nM, an EC50 ([2]; Table 3, compounds 201-283) of less than 100 nM and an EC50 ([3]; Table 3, compounds 201-283) of less than 100 nM.
`C[C@@H]1CN(c2ncnc3c2c(-c2ccccc2F)cn3-c2cc(C#N)ccn2)[C@@H](C)CN1C(=O)C1(F)CC1` [Compound 235, 2-(4-((2S,5R)-4-(1-fluorocyclopropane-1-carbonyl)-2,5-dimethylpiperazin-1-yl)-5-(2-fluorophenyl)-7H-pyrrolo[2,3-d]pyrimidin-7-yl)isonicotinonitrile] gave an EC50 ([1]; Table 3, compounds 201-283) of less than 100 nM, an EC50 ([2]; Table 3, compounds 201-283) of 100 to 500 nM and an EC50 ([3]; Table 3, compounds 201-283) of 500 to 2000 nM.
`C[C@@H]1CN(c2ncnc3c2c(C2CCC2)cn3-c2cccc(C(F)(F)F)c2)[C@@H](C)CN1C(=O)C(C)(C)C` [Compound 261, 1-((2R,5S)-4-(5-cyclobutyl-7-(3-(trifluoromethyl)phenyl)-7H-pyrrolo[2,3-d]pyrimidin-4-yl)-2,5-dimethylpiperazin-1-yl)-2,2-dimethylpropan-1-one] was tested, and the EC50 ([1]; Table 3, compounds 201-283) was less than 100 nM, the EC50 ([2]; Table 3, compounds 201-283) was greater than 2000 nM and the EC50 ([3]; Table 3, compounds 201-283) was 500 to 2000 nM.
`COC1(C(=O)N2C[C@H](C)N(c3ncnc4c3c(-c3ccccc3)cn4-c3cc(C#N)ccn3)C[C@H]2C)CC1` [Compound 283, 2-(4-((2S,5R)-4-(1-methoxycyclopropane-1-carbonyl)-2,5-dimethylpiperazin-1-yl)-5-phenyl-7H-pyrrolo[2,3-d]pyrimidin-7-yl)isonicotinonitrile] was tested, and the EC50 ([1]; Table 3, compounds 201-283) was less than 100 nM, the EC50 ([2]; Table 3, compounds 201-283) was 100 to 500 nM and the EC50 ([3]; Table 3, compounds 201-283) was less than 100 nM.
In the case of `COC(C)(C)C(=O)N1CCN(c2ncnc3c2c(N2CCC2)cn3-c2cc(C#N)ccn2)C[C@H]1C` [Compound 269, (R)-2-(5-(azetidin-1-yl)-4-(4-(2-methoxy-2-methylpropanoyl)-3-methylpiperazin-1-yl)-7H-pyrrolo[2,3-d]pyrimidin-7-yl)isonicotinonitrile], the EC50 ([1]; Table 3, compounds 201-283) is reported as less than 100 nM, the EC50 ([2]; Table 3, compounds 201-283) is reported as less than 100 nM and the EC50 ([3]; Table 3, compounds 201-283) is reported as less than 100 nM.
`CC(C)CC(=O)N1CCN(c2ncnc3c2c(N2CCC2)cn3-c2cc(C#N)ccn2)C[C@H]1C` [Compound 272, (R)-2-(5-(azetidin-1-yl)-4-(3-methyl-4-(3-methylbutanoyl)piperazin-1-yl)-7H-pyrrolo[2,3-d]pyrimidin-7-yl)isonicotinonitrile] gave an EC50 ([1]; Table 3, compounds 201-283) of less than 100 nM, an EC50 ([2]; Table 3, compounds 201-283) of 100 to 500 nM and an EC50 ([3]; Table 3, compounds 201-283) of less than 100 nM.
`COC(C)(C)C(=O)N1CCN(c2ncnc3c2c(-c2ccccc2F)cn3-c2cc(C#N)ccn2)C[C@H]1C` [Compound 266, (R)-2-(5-(2-fluorophenyl)-4-(4-(2-methoxy-2-methylpropanoyl)-3-methylpiperazin-1-yl)-7H-pyrrolo[2,3-d]pyrimidin-7-yl)isonicotinonitrile] showed an EC50 ([1]; Table 3, compounds 201-283) of less than 100 nM, an EC50 ([2]; Table 3, compounds 201-283) of 100 to 500 nM and an EC50 ([3]; Table 3, compounds 201-283) of less than 100 nM.
Work on `CC(C)C(=O)N1CCN(c2ncnc3c2c(-c2ccccc2F)cn3-c2cc(C#N)ccn2)C2(CC2)C1` [Compound 155, 2-(5-(2-fluorophenyl)-4-(7-isobutyryl-4,7-diazaspiro[2.5]octan-4-yl)-7H-pyrrolo[2,3-d]pyrimidin-7-yl)isonicotinonitrile] yielded an EC50 ([1]; Table 3, compounds 101-177) of less than 100 nM, an EC50 ([2]; Table 3, compounds 101-177) of 100 to 500 nM and an EC50 ([3]; Table 3, compounds 101-177) of less than 100 nM.
`C[C@@H]1CN(c2ncnc3c2c(C2CCC2)cn3-c2cccc(F)c2)[C@@H](C)CN1C(=O)CC(C)(C)C(F)(F)F` [Compound 251, 1-((2R,5S)-4-(5-cyclobutyl-7-(3-fluorophenyl)-7H-pyrrolo[2,3-d]pyrimidin-4-yl)-2,5-dimethylpiperazin-1-yl)-4,4,4-trifluoro-3,3-dimethylbutan-1-one] was tested, and the EC50 ([1]; Table 3, compounds 201-283) was 100 to 500 nM, the EC50 ([2]; Table 3, compounds 201-283) was 500 to 2000 nM and the EC50 ([3]; Table 3, compounds 201-283) was 100 to 500 nM.
`C[C@H]1CN(C(=O)C2(C)CC2)CCN1c1ncnc2c1c(-c1ccccc1)cn2-c1cc(C#N)ccn1` [Compound 128, (S)-2-(4-(2-methyl-4-(1-methylcyclopropane-1-carbonyl)piperazin-1-yl)-5-phenyl-7H-pyrrolo[2,3-d]pyrimidin-7-yl)isonicotinonitrile] gave an EC50 ([1]; Table 3, compounds 101-177) of less than 100 nM, an EC50 ([2]; Table 3, compounds 101-177) of less than 100 nM and an EC50 ([3]; Table 3, compounds 101-177) of less than 100 nM.
Compound `COC1(C(=O)N2C[C@H](C)N(c3ncnc4c3c(-c3ccccc3F)cn4-c3cc(C#N)ccn3)C[C@H]2C)CC1` [Compound 267, 2-(5-(2-fluorophenyl)-4-((2S,5R)-4-(1-methoxycyclopropane-1-carbonyl)-2,5-dimethylpiperazin-1-yl)-7H-pyrrolo [2,3-d]pyrimidin-7-yl)isonicotinonitrile] has an EC50 ([1]; Table 3, compounds 201-283) of less than 100 nM, an EC50 ([2]; Table 3, compounds 201-283) of 100 to 500 nM and an EC50 ([3]; Table 3, compounds 201-283) of less than 100 nM.
Compound `CCCN(CC)c1cn(-c2cc(C#N)ccn2)c2ncnc(N3CCN(C(=O)CC(C)(C)C)C[C@@H]3C)c12` [Compound 166, (S)-2-(4-(4-(3,3-dimethylbutanoyl)-2-methylpiperazin-1-yl)-5-(ethyl(propyl)amino)-7H-pyrrolo [2,3-d]pyrimidin-7-yl)isonicotinonitrile] has an EC50 ([1]; Table 3, compounds 101-177) of less than 100 nM, an EC50 ([2]; Table 3, compounds 101-177) of 100 to 500 nM and an EC50 ([3]; Table 3, compounds 101-177) of less than 100 nM.
`C[C@@H]1CN(c2ncnc3c2c(N2CCC2)cn3-c2cc(C#N)ccn2)CCN1C(=O)C(C)(C)C` [Compound 271, (R)-2-(5-(azetidin-1-yl)-4-(3-methyl-4-pivaloylpiperazin-1-yl)-7H-pyrrolo[2,3-d]pyrimidin-7-yl)isonicotinonitrile] was tested, and the EC50 ([1]; Table 3, compounds 201-283) was less than 100 nM, the EC50 ([2]; Table 3, compounds 201-283) was less than 100 nM and the EC50 ([3]; Table 3, compounds 201-283) was less than 100 nM.
With `CC(C)(C)C(=O)N1CCN(c2ncnc3c2c(-c2ccccc2F)cn3-c2cc(C#N)ccn2)CC1` [Compound 108, 2-(5-(2-fluorophenyl)-4-(4-pivaloylpiperazin-1-yl)-7H-pyrrolo[2,3-d]pyrimidin-7-yl)isonicotinonitrile] the EC50 ([1]; Table 3, compounds 101-177) was less than 100 nM, the EC50 ([2]; Table 3, compounds 101-177) was less than 100 nM and the EC50 ([3]; Table 3, compounds 101-177) was less than 100 nM.
Compound `C[C@@H]1CN(c2ncnc3c2c(C(F)(F)F)cn3-c2cccc(Cl)c2)[C@@H](C)CN1C(=O)C(C)(C)C` [Compound 204, 1-((2R,5S)-4-(7-(3-chlorophenyl)-5-(trifluoromethyl)-7H-pyrrolo[2,3-d]pyrimidin-4-yl)-2,5-dimethylpiperazin-1-yl)-2,2-dimethylpropan-1-one] has an EC50 ([1]; Table 3, compounds 201-283) of less than 100 nM, an EC50 ([2]; Table 3, compounds 201-283) of 100 to 500 nM and an EC50 ([3]; Table 3, compounds 201-283) of less than 100 nM.
